Source: ChEMBL document CHEMBL3217599, “Selective antitumour activity and ER molecular docking studies of newly synthesizedd-homo fused steroidal tetrazoles” (Medchemcomm, 2013)

What was measured:
HT-29 = test: Cytotoxicity against human HT-29 cells expressing estrogen receptor after 48 hrs by MTT assay; format: functional, cell-based; conditions: HT-29, 48 h
MRC5 = test: Cytotoxicity against human MRC5 cells expressing estrogen receptor after 48 hrs by MTT assay; format: cell-based; conditions: MRC5, 48 h
K562 = test: Cytotoxicity against human K562 cells expressing estrogen receptor after 48 hrs by MTT assay; format: functional, cell-based; conditions: K562, 48 h
PC-3 [1] = test: Cytotoxicity against human PC3 cells expressing estrogen receptor after 48 hrs by MTT assay; format: functional, cell-based; conditions: PC-3, 48 h
MDA-MB-231 = test: Cytotoxicity against estrogen receptor-deficient human MDA-MB-231 cells after 48 hrs by MTT assay; format: functional, cell-based; conditions: MDA-MB-231, 48 h
HeLa = test: Cytotoxicity against human HeLa cells expressing estrogen receptor after 48 hrs by MTT assay; format: functional, cell-based
MCF7 = test: Cytotoxicity against human MCF7 cells expressing estrogen receptor after 48 hrs by MTT assay; format: functional, cell-based; conditions: MCF7, 48 h
PC-3 [2] = test: Ratio of doxorubicin IC50 to compound IC50 for human PC3 cells expressing estrogen receptor after 48 hrs by MTT assay; format: functional

SMILES | IC50 (HT-29) | IC50 (MRC5) | IC50 (K562) | IC50 (PC-3 [1]) | IC50 (MDA-MB-231) | IC50 (HeLa) | IC50 (MCF7) | Ratio IC50 (PC-3 [2])
C[C@H]1n2nnnc2C[C@H]2[C@@H]3CCc4cc(OCc5ccccc5)ccc4[C@H]3CC[C@@]21C | 18 µM | > 100 µM | > 100 µM | > 100 µM | > 100 µM | > 100 µM | 4.58 µM | –
COc1cccc2c1C(=O)c1c(O)c3c(c(O)c1C2=O)C[C@@](O)(C(=O)CO)C[C@@H]3O[C@H]1C[C@H](N)[C@H](O)[C@H](C)O1 [DOXORUBICIN] | 0.32 µM | – | 0.36 µM | – | – | – | 0.75 µM | –
CC(=O)O[C@H]1CC[C@@]2(C)C(=CC[C@H]3[C@@H]4Cc5nnnn5C[C@@]4(C)CC[C@@H]32)C1 | > 100 µM | > 100 µM | 45.2 µM | 79 µM | > 100 µM | > 100 µM | 56.2 µM | –
CC(=O)O[C@H]1CC[C@@]2(C)C(=CC[C@H]3[C@@H]4Cc5nnnn5[C@H](C)[C@@]4(C)CC[C@@H]32)C1 | > 100 µM | > 100 µM | 11.1 µM | 15.3 µM | 89.6 µM | > 100 µM | 25.4 µM | >6
C[C@]12CC[C@@H]3c4ccc(OCc5ccccc5)cc4CC[C@H]3[C@@H]1Cc1nnnn1C2 | > 100 µM | > 100 µM | > 100 µM | 65.5 µM | > 100 µM | > 100 µM | 12.6 µM | –
